Patent US10668068B2, “Treating cancer with drug combinations” (The Research Foundation for The State University of New York, priority 2015, dated 2020)

Experiments:
[1] = system: EGFR, HER2, Her3 and ErbB4; experiment: Western blotting of EGFR family activation and downstream Akt/Erk in BT474 cells; type: cell-based, human; conditions: 2 hours; for phosphorylation (activation) of EGFR family: ibrutinib 0.05 or 0.1 μM, AVL-292 0.1 μM
Protocol: (§1) Immunoblotting was performed essentially as described previously. Equal amounts of proteins were used. Antibodies used were anti-EGFR (1:1000,), anti-HER2 (1:1000,), anti-ERBB3, ERBB4 antibody, anti-BTK, anti-AKT, ERIK, anti-PLCγ1, PLCγ2 and anti-PARP (1:1000, cell signaling), anti-Flag antibody (1:1000, Sigma), anti-rabbit IgG-HRP and mouse IgG-HRP (1:5000, Jackson ImmunoResearch).

SKBR3 cells [2] = experiment: Cell growth assay (live cell count); type: cell-based, human; conditions: 1 μM, 3 days
Excerpt: (§2) For live cell counts, cell growth on 96-well plates were fixed 4% formaldehyde and counterstained with Hoechst 33342 for nuclei.

BT474 cells [3] = experiment: Cell growth assay (live cell count), monolayer culture; type: cell-based, human; conditions: 0.01 μM, 3 days
Excerpt: as §2

[4] = system: HER2-positive breast cancer cells; experiment: Cell growth assay (live cell count); type: cell-based; conditions: Homo sapiens, 72 h; 3 days of culture; read-out: IC50 for effect on HER2-positive breast cancer cells
Excerpt: as §2

[5] = system: BT474 human breast cancer cells; experiment: Cell cycle analysis (propidium iodide, flow cytometry); type: cell-based
Protocol: After trypsinized, cells were collected and washed with cold PBS. Cells were fixed with 70% ethanol, washed and stained with PI/Triton X-100 staining solution (0.1% triton X-100, 2 μg/ml PI and 0.2 mg/ml DNAse-free RNAse) for 30 min. Samples were analyzed by flow cytometry.

xenografts of SKBR3 = system: xenografts of SKBR3
Protocol: NOD/SCID mice were purchased from Jackson Lab (The Jackson Laboratory, Bar Harbor, Me., USA). All mouse procedures were approved by the Animal Care and Use Committees of SUNY Albany and performed in accordance with institutional policies.
For xenograft tumor studies, 1×10^6 SKBR3 cells were suspended in 50 μl Matrigel (BD Biosciences) diluted 1:2 with DMEM and injected into mammary fat pad. Treatment began when tumors were palpable. […] The tumor volume in mm^3 is calculated by the formula: volume=(width)^2×length/2 every 7 days.

[6] = system: HER2-positive breast cancer cells; experiment: Apoptosis assay (Alexa Fluor 488 annexin V)
breast cancer cells = conditions: cited from earlier work
BT474 cells [7] = experiment: Nine days NRG1 co-treatment, crystal violet staining; type: cell-based, human; conditions: 9 days, drug 1 uM, NRG1 50 ng/ml
Protocol: (§3) Cells were cultured in 6-well plates for indicated days. Cells were fixed with 3.7% paraformaldehyde for 10 min and washed with PBS. After wash, cells were stained with 0.05% CV for 30 min Whole plate was washed with tape water. Dry plate was added with 0.5 ml methanol to solubilize the dye. Taking an aliquot to 96-well plate and reading CV stain with OD 540. Tumorospheres were counted under low magnification.

SKBR3 cells [8] = experiment: as above; type: cell-based, human; conditions: 9 days, drug 1 uM, NRG1 50 ng/ml
Protocol: as §3

AKT = experiment: Immunoblots of NRG1 effect on HER2, AKT and ERK activation in BT474 and SkBR3 cells; type: cell-based, human; conditions: 2 h
Protocol: as §1

[9] = system: HER2-positive breast cancer cells; experiment: Live cell count with NRG1 or EGF (growth factor driven rescue)
BTK-C = target: T1, BTK-C (Homo sapiens, UniProt Q06187); experiment: Inhibition of BTK-C kinase activity / activating phosphorylation (FIG. 8A-C); type: cell-based
T1 construct: Flag; expressed in transfected cells; host or cells: SKBR3-BTK-C (SKBR3 human breast cancer cells expressing BTK-C)
T1 sequence (Q06187 1-693 isoform Q06187-2): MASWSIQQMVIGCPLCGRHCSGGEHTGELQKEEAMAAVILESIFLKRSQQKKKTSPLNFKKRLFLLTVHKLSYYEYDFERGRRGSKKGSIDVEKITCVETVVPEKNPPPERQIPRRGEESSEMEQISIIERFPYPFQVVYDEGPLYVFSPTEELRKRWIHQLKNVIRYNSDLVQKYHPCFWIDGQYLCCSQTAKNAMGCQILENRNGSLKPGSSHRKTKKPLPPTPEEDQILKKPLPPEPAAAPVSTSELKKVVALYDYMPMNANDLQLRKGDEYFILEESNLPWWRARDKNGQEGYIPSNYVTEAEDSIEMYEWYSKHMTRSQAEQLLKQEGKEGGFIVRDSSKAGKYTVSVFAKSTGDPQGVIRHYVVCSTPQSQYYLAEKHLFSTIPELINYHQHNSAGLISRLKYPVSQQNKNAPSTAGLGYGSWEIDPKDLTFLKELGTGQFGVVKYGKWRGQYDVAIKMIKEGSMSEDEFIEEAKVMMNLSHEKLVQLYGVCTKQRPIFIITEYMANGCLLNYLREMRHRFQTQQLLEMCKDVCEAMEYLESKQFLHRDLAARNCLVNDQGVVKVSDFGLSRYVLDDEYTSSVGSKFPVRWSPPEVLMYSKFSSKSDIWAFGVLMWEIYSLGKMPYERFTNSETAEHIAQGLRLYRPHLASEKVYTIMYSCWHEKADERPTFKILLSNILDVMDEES

Cc1c(NC(=O)c2ccc(C(C)(C)C)cc2)cccc1-c1cn(C)c(=O)c(Nc2ccc(C(=O)N3CCOCC3)cc2)n1 [CGI-1746]
phosphorylation (activation) of EGFR family [1]: but not AVL-292 and CGI-1746, efficiently blocks activation of EGFR, HER2, ErbB3, and ErbB4

C=CC(=O)N1CCC[C@@H](n2nc(-c3ccc(Oc4ccccc4)cc3)c3c(N)ncnc32)C1 [ibrutinib]
reduction of cell numbers (SKBR3 cells [2]): more than 80%
cell population, % of control (BT474 cells [3]; BT474 monolayer): 30 % of control
IC50 [4]: 0.03 µM
decrease in the number of cells in the S phase ([5]; 0.03 μM, compared with controls): 50%
tumor volume smaller than vehicle control / inhibition of tumor growth (xenografts of SKBR3; 12 mg/kg/day p.o., day 28): 45%
apoptosis induction compared with lapatinib ([6]; HER2-positive breast cancer cells): 1.5 fold

C/C(O)=C(\C#N)C(=O)Nc1cc(Br)ccc1Br [LFM-A13]
apoptosis levels (breast cancer cells): increase apoptosis levels

CS(=O)(=O)CCNCc1ccc(-c2ccc3ncnc(Nc4ccc(OCc5cccc(F)c5)c(Cl)c4)c3c2)o1 [lapatinib]
reduction of cell numbers (BT474 cells [3]; monolayer): fails to reduce HER2-positive breast cancer cell numbers significantly
Akt and Erk phosphorylation / downstream signaling [1]: inhibits both AKT and ERK phosphorylation
G1-S arrest ([5]; 24 hours): appreciable G1-S arrest
drug resistance after NRG1 co-treatment (BT474 cells [7]): yields cells that exhibit lapatinib resistance
drug resistance after NRG1 co-treatment (SKBR3 cells [8]): yields cells that exhibit lapatinib resistance
re-activation of AKT by NRG1 (AKT; co-treatment with NRG1 50 ng/ml): NRG1 re-activates AKT without activation of HER2
activation of HER2, AKT and ERK (AKT; drug alone): blocked
potency in SKBR3 tumor xenograft compared with ibrutinib 12 mg/kg/day (xenografts of SKBR3; lapatinib 75 mg/kg/day p.o.): less potent
number of apoptotic cells ([6]; 0.05 or 0.1 μM, 24 hours): increase in the number of apoptotic cells
rescue from growth inhibition by NRG1 ([9]; 50 ng/ml of NRG1, 3 days): NRG1 application is able to rescue
cell growth suppression ([9]; drug without growth factor, 3 days): potently suppresses cell growth

C=CC(=O)Nc1cccc(Nc2nc(Nc3ccc(OCCOC)cc3)ncc2F)c1 [AVL-292, N-(3-((5-fluoro-2((4-(2-methoxyethoxy)phenyl)amino)pyrimidin-4-yl)amino)phenyl)acrylamide]
BTK-C activating phosphorylation (BTK-C; FIG. 8C): inhibit BTK-C activating phosphorylation
inhibition of BTK-C kinase activity (BTK-C; compared with ibrutinib): inhibit BTK-C kinase activity to the same degree as ibrutinib
phosphorylation (activation) of EGFR family [1]: does not block EGFR family signaling pathway activation
